Measurements as given in PubChem BioAssay (NCI).
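In this assay, cells in 96-well plates receive the compound at five concentrations for 48 hours. Endpoints are linearly interpolated between the surrounding concentrations. Abbreviation: GI50, concentration required for 50% inhibition of growth. TGI denotes the concentration required for complete inhibition of growth.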

Legend:
Assay in all cases: NCI-60 cell line screen, 48 h
[1] = test system: SK-MEL-28 melanoma
[2] = test system: K-562 leukemia
[3] = test system: SK-OV-3 ovarian
[4] = test system: MALME-3M melanoma
[5] = test system: A498 renal
[6] = test system: SW-620 colon
[7] = test system: NCI-H522 lung
[8] = test system: MDA-MB-468 breast
[9] = test system: SF-539 CNS
[10] = test system: HCT-116 colon
[11] = test system: HOP-92 NSCLC
[12] = test system: BT-549 breast
[13] = test system: PC-3 prostate
[14] = test system: OVCAR-4 ovarian
[15] = test system: UACC-257 melanoma
[16] = test system: CAKI-1 renal
[17] = test system: COLO 205 colon
[18] = test system: OVCAR-3 ovarian
[19] = test system: 786-0 renal
[20] = test system: MCF7 breast
[21] = test system: MDA-MB-231 breast
[22] = test system: HCC-2998 colon
[23] = test system: HL-60(TB) leukemia
[24] = test system: U251 CNS
[25] = test system: MDA-MB-435
[26] = test system: RPMI-8226 leukemia
[27] = test system: SNB-75 CNS
[28] = test system: RXF 393 renal
[29] = test system: NCI-H460 lung
[30] = test system: CCRF-CEM leukemia
[31] = test system: LOX IMVI melanoma
[32] = test system: SK-MEL-2 melanoma
[33] = test system: SF-268 CNS
[34] = test system: ACHN renal
[35] = test system: UO-31 renal
[36] = test system: MOLT-4 leukemia
[37] = test system: NCI/ADR-RES ovarian
[38] = test system: T-47D breast
[39] = test system: SNB-19 CNS
[40] = test system: HOP-62 NSCLC
[41] = test system: SK-MEL-5 melanoma
[42] = test system: M14 melanoma
[43] = test system: OVCAR-8 ovarian
[44] = test system: HS 578T breast
[45] = test system: NCI-H226 lung
[46] = test system: TK-10 renal
[47] = test system: OVCAR-5 ovarian
[48] = test system: A549 NSCLC
[49] = test system: SR leukemia
[50] = test system: SN12C renal
[51] = test system: SF-295 CNS
[52] = test system: HT29 colon
[53] = test system: DU-145 prostate
[54] = test system: IGROV1 ovarian
[55] = test system: HCT-15 colon
[56] = test system: EKVX NSCLC
[57] = test system: KM12 colon
[58] = test system: NCI-H23 lung
[59] = test system: UACC-62 melanoma

Cc1ccc(-c2ccc(SCC(=O)Nc3ccc(S(N)(=O)=O)cc3Br)nn2)cc1
GI50 [1]: 13.4 µM
TGI [1]: 27 µM
GI50 [2]: 36.3 µM
TGI [2]: > 100 µM
GI50 [3]: 15.1 µM
TGI [3]: 29.3 µM
GI50 [4]: 13.7 µM
TGI [4]: 28.8 µM
GI50 [5]: 19.3 µM
TGI [5]: 34.4 µM
GI50 [6]: 27.2 µM
TGI [6]: > 100 µM
GI50 [7]: 10.9 µM
TGI [7]: 25.4 µM
GI50 [8]: 15.3 µM
TGI [8]: 36.4 µM
GI50 [9]: 10.4 µM
TGI [9]: 22.2 µM
GI50 [10]: 3.67 µM
TGI [10]: 17.2 µM
GI50 [11]: 2.97 µM
TGI [11]: 13.5 µM
GI50 [12]: 15.7 µM
TGI [12]: 44.2 µM
GI50 [13]: 5.64 µM
TGI [13]: 22.5 µM
GI50 [14]: 14.1 µM
TGI [14]: 35 µM
GI50 [15]: 22.7 µM
TGI [15]: 64.9 µM
GI50 [16]: 12.3 µM
TGI [16]: 28.5 µM
GI50 [17]: 17.4 µM
TGI [17]: 41.2 µM
GI50 [18]: 16.9 µM
TGI [18]: 32.4 µM
GI50 [19]: 16.4 µM
TGI [19]: 47 µM
GI50 [20]: 15.4 µM
TGI [20]: 37.1 µM
GI50 [21]: 4.19 µM
TGI [21]: 15.5 µM
GI50 [22]: 11.5 µM
TGI [22]: 28.1 µM
GI50 [23]: > 100 µM
TGI [23]: > 100 µM
GI50 [24]: 6.17 µM
TGI [24]: 24 µM
GI50 [25]: 25.4 µM
TGI [25]: > 100 µM
GI50 [26]: > 100 µM
TGI [26]: > 100 µM
GI50 [27]: 13.6 µM
TGI [27]: 37.1 µM
GI50 [28]: 3.96 µM
TGI [28]: 20.5 µM
GI50 [29]: 10.3 µM
TGI [29]: 29 µM
GI50 [30]: > 100 µM
TGI [30]: > 100 µM
GI50 [31]: 10.4 µM
TGI [31]: 25.5 µM
GI50 [32]: 16.4 µM
TGI [32]: 35.3 µM
GI50 [33]: 18.4 µM
TGI [33]: 48.9 µM
GI50 [34]: 12 µM
TGI [34]: 24.4 µM
GI50 [35]: 14.7 µM
TGI [35]: 28.6 µM
GI50 [36]: > 100 µM
TGI [36]: > 100 µM
GI50 [37]: 9.62 µM
TGI [37]: > 100 µM
GI50 [38]: 10.6 µM
TGI [38]: 34.3 µM
GI50 [39]: 11.3 µM
TGI [39]: 23.3 µM
GI50 [40]: 6.99 µM
TGI [40]: 24.2 µM
GI50 [41]: 13.1 µM
TGI [41]: 26.5 µM
GI50 [42]: 30.5 µM
TGI [42]: > 100 µM
GI50 [43]: 13.3 µM
TGI [43]: 29.6 µM
GI50 [44]: 13.1 µM
TGI [44]: 45.3 µM
GI50 [45]: 7.32 µM
TGI [45]: 24.7 µM
GI50 [46]: 17.6 µM
TGI [46]: 39.5 µM
GI50 [47]: 15 µM
TGI [47]: 32.4 µM
GI50 [48]: 15 µM
TGI [48]: 30.9 µM
GI50 [49]: 60.4 µM
TGI [49]: > 100 µM
GI50 [50]: 23.8 µM
TGI [50]: 60 µM
GI50 [51]: 10.5 µM
TGI [51]: 22.3 µM
GI50 [52]: 7.6 µM
TGI [52]: 68.8 µM
GI50 [53]: 13.3 µM
TGI [53]: 32.1 µM
GI50 [54]: 15.9 µM
TGI [54]: 31.3 µM
GI50 [55]: 11.3 µM
TGI [55]: 23.4 µM
GI50 [56]: 15.5 µM
TGI [56]: 31.3 µM
GI50 [57]: 28.3 µM
TGI [57]: > 100 µM
GI50 [58]: 9.73 µM
TGI [58]: 21.4 µM
GI50 [59]: 13.2 µM
TGI [59]: 26.2 µM
